From patent US11291666B2, “Uses” (INTRA-CELLULAR THERAPIES, INC., priority 2016, dated 2022)
“Also recorded” adds a separate entry of the source.

How the values were obtained:
BV2 cells [1] = test: Quantitative PCR of inflammatory cytokine mRNA in LPS-treated BV2 cells; type: cell-based, mouse; conditions: LPS 10 microgram/ml, Compound 214 10 microgram/ml, FIG. 2
BV2 cells [2] = test: LPS-induced TNFα release from BV2 cells (ELISA); type: cell-based, mouse; conditions: 50 ng/ml LPS stimulation, FIG. 5
Procedure: TNFα release: TNFα levels are measured in BV2 conditioned media and normalized to cell protein levels. Inhibition of LPS-induced TNFα release from BV2 cells is depicted in FIG. 5.
(§1) The test compound is added first, the LPS is added one hour later, and the cells and/or media are harvested at five hours from commencement of the experiment.
TNFαELISA: Thermo Fisher mouse TNFα colorimetric, sandwich ELISA kit. Interpolatee values from standard curve. Dose response is fit to a 4-parameter logistic curve.

BV2 cells [3] = test: Quantitative PCR of inflammatory cytokine mRNA in LPS-treated BV2 cells; type: cell-based, mouse
Procedure: Levels of IL1β are measured using quantitative PCR of IL1β mRNA. IL1β is considered a marker of inflammation. Results are depicted in FIG. 2 (RQ: relative quantification of changes in gene expression in treated versus control samples; ***p<0.01 vs control, √p<0.01 vs LPS alone; ANOVA with Newman-Keuls post-hoc test).
BV2 cells are pretreated with compound, ITI-214 or rolipram, a PDE4 inhibitor, then stimulated with 50 ng/ml LPS for 4 hours. Expression levels of TNF, IL1β, Ccl2, and IL6 are measured. Normalized mRNA levels are shown as change from vehicle (ΔΔCt) and compared using a one-way ANOVA. […] The mRNA transcripts for TNF, IL1β, and Ccl2—three of the four cytokines studied in vivo—were elevated in BV2 cells treated with 50 ng/ml LPS.
as §1
RTqPCR: RNA from BV2 cells purified using RNeasyKit (Qiagen) and from mouse tissue using TRIzol (Ambion). TaqMan primer-probe assays from Thermo Fisher. mRNA levels for all conditions are normalized to GAPDH and to vehicle control (ΔΔCt). Data are analyzed statistically using one-way ANOVA with the Bonferroni post-test for multiple comparisons.

BV2 cells [4] = test: RNAseq analysis of LPS-stimulated BV2 cells, differentially expressed transcripts; type: cell-based, mouse; conditions: for genes affected by both Compound 214 and Rolipram / genes significantly affected by this compound but not the other (Compound 214 / Rolipram) / overlap of genes affected by Compound 214 and Rolipram: LPS-stimulated BV2 cells
Procedure: as §1
RNASeq: Flashfreeze BV2cells, isolate RNA, prepare a library using polyA selection, and conduct 1×50 bp single read sequencing on the Illumina HiSeq 2500 in High Output mode (using V4 chemistry). Genes are mapped to reference genome (GRCm38) using CLC Genomics Server. Number of reads per sample average ˜17 million. Differential gene expression analysis is performed using DESeq2software (Bioconductor.org). Differentially expressed genes (p<0.01, Waldtest) are reported as log 2(fold change).

[5] = tested on: IL1β mRNA in the hippocampus; test: IL1β expression in hippocampus in vivo after LPS (quantitative PCR); conditions: mice; LPS 2 mg/kg s.c.; 10 mg/kg i.p.; six hours post injection; FIG. 3
Procedure: At six hours post injection, levels of IL1β in the hippocampus are measured via quantitative PCR of IL1β mRNA. IL1β is considered a marker of inflammation. Data are presented in FIG. 3 (***p<0.01 vs LPS alone, ANOVA with Newman-Keuls post-hoc test).

BV2 cells [6] = test: RT-qPCR of selected genes in BV2 cells with ITI-214, cyclase activators and PKA/PKG inhibitors; type: cell-based, mouse
Procedure: In a further experiment a group of genes is selected for further analysis by RT-qPCR. For comparison, genes are analyzed which have been implicated in the scientific literature in microglial and astrocyte activation, including genes in the complement pathway.
All sample values are normalized to an average of 3 reference genes and to vehicle control (ΔΔCt). The error bars represent the mean+/−SEM (n=4). From left to right, for each cytokine grouping, the bars indicate samples treated with: LPS, 0.1 μM 214+LPS, 0.4 μM 214+LPS, 1.1 μM 214+LPS, 3.3 μM 214+LPS, 10 μM 214+LPS, for each particular gene shown on the X-axis. Significant changes between LPS and 10 μM ITI-214+LPS (A) and Vehicle and 10 μM ITI-214 (B) are marked on the X-axis gene names and are calculated using a one-way ANOVA. * p<0.05, **p<0.01, ***p<0.001, ****p<0.0001.
In one particular experiment, BV2 cells are treated with 10 μM forskolin (FSK) to activate adenylyl cyclases, 5 μM DEANO to activate soluble guanylyl cyclase, or 100 nM atrial natriuretic peptide (ANP) to activate particulate guanylyl cyclase. […] Upon combining forskolin with ITI-214 some of the effects of ITI-214 inhibition can be increased. […] However, LIF reverts to LPS-level expression when forskolin is added.
Note that gene expression levels upon addition of PKA or PKG inhibitor to 10 μM ITI-214 are on the order of those relative to LPS treatment alone were reduced to levels equivalent to 3.3 μM ITI-214.

[7] = BV2 cells, 50 ng/ml LPS for 4 hours, 10 μM, FIG. 4b
[8] = BV2 cells, Compound 214 at 10 μM, FIG. 4a

CN1C(=O)c2c(nn(Cc3ccc(-c4cccc(F)n4)cc3)c2Nc2ccccc2)N2C1=N[C@@H]1CCC[C@@H]12 [Compound 214]
LPS-induced increase in expression of IL1β (mRNA, quantitative PCR) (BV2 cells [1]): suppresses; also recorded: significantly blunts
LPS-induced TNFα release (BV2 cells [2]): dose-dependent inhibition
Chemokine (C-C) motif Ligand 2 expression (Q-PCR) (BV2 cells [3]; BV2 + LPS, initial results): Down
Interleukin 1 beta expression (Q-PCR) (BV2 cells [3]; BV2 + LPS, initial results): Down
Tumor necrosis factor expression (Q-PCR) (BV2 cells [3]; BV2 + LPS, initial results): Down
Ccl2 mRNA signal (BV2 cells [3]; [7]): significantly decreased
IL1β mRNA signal (BV2 cells [3]; [7]): trended downward
TNF mRNA signal (BV2 cells [3]; [7]): significantly decreased
LPS-induced increase in expression of Ccl2 (BV2 cells [3]; [8]): significantly reduces
LPS-induced increase in expression of IL1β (BV2 cells [3]; [8]): significantly reduces
LPS-induced increase in expression of TNFα (BV2 cells [3]; [8]): significantly reduces
LPS-induced changes in proinflammatory markers (BV2 cells [3]; BV2 cells, separate experiment, FIG. 4b, 50 ng/ml LPS for 4 hours): greatly reduces or blunts
mRNA transcripts decreased in the presence of LPS + compound vs. LPS alone (BV2 cells [4]; BV2 cells, RNAseq): 138 transcripts
overlap between the Compound 214 and rolipram sets of decreased transcripts (BV2 cells [4]; BV2 cells, RNAseq): 48 transcripts
overlap between the Compound 214 and rolipram sets of elevated transcripts (BV2 cells [4]; BV2 cells, RNAseq): 45 transcripts
transcripts elevated in the presence of LPS + compound vs. LPS alone (BV2 cells [4]; BV2 cells, RNAseq): 149 transcripts
genes affected by both Compound 214 and Rolipram (BV2 cells [4]; further RNASeq analysis): 114 genes
genes significantly affected by this compound but not the other (Compound 214 / Rolipram) (BV2 cells [4]; further RNASeq analysis): 293 genes
overlap of genes affected by Compound 214 and Rolipram (BV2 cells [4]; further RNASeq analysis): about 17%
genes affected by both Compound 214 and Rolipram (BV2 cells [4]; still a further experiment): 683 genes
genes significantly affected by this compound but not the other (Compound 214 / Rolipram) (BV2 cells [4]; still a further experiment): 1240 genes
overlap of genes affected by Compound 214 and Rolipram (BV2 cells [4]; still a further experiment): about half
LPS-induced increase in expression of IL1β in the hippocampus (mRNA) [5]: suppresses; also recorded: significantly blunts
induction of Cx3cr1 by LPS (BV2 cells [6]): significantly reduced
modulation of transcriptional responses to LPS (BV2 cells [6]; 50 ng/ml LPS, 0.1-10 μM, FIG. 10a): dose dependent
ITI-214 responsive transcripts (Cx3cr1, Csf2, TNF, Cc14, MAPKAPK2, PtpN6, Ccr1) with concomitant forskolin (BV2 cells [6]; LPS, 10 μM forskolin, FIG. 11a): further down- or up-modulated
impact of ITI-214 on addition of PKA inhibitor cAMPS-Rp or PKG inhibitor -8-Br-PET-cGMPS (BV2 cells [6]; LPS, inhibitors 100 μM, FIG. 11b): Moderate reduction
basal expression of Cx3cr1 (BV2 cells [6]; in the absence of LPS): significantly reduced
LIF expression (BV2 cells [6]; with LPS, FIG. 11a): further increased
